From paper PMC9218685, “Legume Plant Peptides as Sources of Novel Antimicrobial Molecules Against Human Pathogens” (Frontiers in Molecular Biosciences, 2022)
Converted amounts (≈) assume the structure as drawn. “Also recorded” adds a separate entry of the source. Peptide text beside a SMILES is read from it.

Legend:
[1] = system: E. coli, S. enteritidis, P. aeruginosa, L. monocytogenes, S. aureus, E. faecalis, K. pneumoniae and A. baumannii; assay: Antimicrobial activity assay, spectrum over the eight tested pathogenic bacteria; assay type: cell-based; details: 3 h treatment of ~10^7 log phase bacteria, peptides 25 to 0.8 µM; active = MBC ≤25 µM
Procedure, shortened: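 Log-phase bacteria (~10^7) treated 3 h with NCR peptides in potassium-phosphate buffer pH 7.4, two-fold dilutions from 25 µM to 0.8 µM. MBC is the lowest concentration completely eliminating viable bacteria. Strains: E. faecalis ATCC 29212, S. aureus HNCMO112011, L. monocytogenes ATCC 19111, P. aeruginosa ATCC 27853, E. coli ATCC 8739, S. enterica ATCC 13076, K. pneumoniae NCTC 13440, A. baumannii ATCC 17978.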

C. albicans = assay: Scanning electron microscopy of cell morphology; assay type: cell-based, Candida albicans; details: 30 min treatment, peptide 1.6, 3.125 or 25 µM as in Figure 4 legend
Description: (§1) A. baumannii and C. albicans were grown and treated the same way as for the membrane permeability assay. Cells were then fixed with 2.5% (v/v) glutaraldehyde in phosphate buffered saline (PBS, pH 7.4). 5 μl of the above bacterial and yeast suspensions were spotted on a silicon disk coated with 0.01% Poly-L-Lysine. The filters were washed twice with PBS and gradually dehydrated with ethanol series (30, 50, 70, 80%, and three times 100% ethanol, each for minimum 30 min). The samples were dried with a critical point dryer (K850: Quorum Technologies Ltd.), followed by 12 nm gold coating and observed under a JEOL JSM-7100F/LV scanning electron microscope.

A. baumannii = assay: Scanning electron microscopy of cell morphology; assay type: cell-based, Acinetobacter baumannii; details: 30 min treatment, peptide 1.6 or 3.125 µM as in Figure 3 legend
Description: as §1
FIGURE 3 Viability, membrane permeability and morphology of A. baumannii cells after NCR treatment (A–L) SYTO9/PI staining observed with confocal microscope, (M–X) Cell morphology observed with SEM. (A,M) untreated control, (B,N) CaNCR13, 3.125 µM, (C,O) CaNCR63, 3.125 µM, (D,P) CaNCR63_1-20, 3.125 µM, (E,Q) CaNCR63_15-34, 3.125 µM, (F,R) MsNCR443, 3.125 µM, (G,S) MsNCR463_16-35, 1.6 µM, (H,T) MsNCR463_17-30, 3.125 µM, (I,U) PsNCR349, 1.6 µM, (J,V) PsNCR349_26-50, 3.125 µM, (K,W) PsNCR349_31-50, 3.125 µM, (L,X) PsNCR352, 1.6 µM.

[2] = system: Lambda DNA/HindIII marker; assay: Gel retardation assay (DNA aggregation); assay type: binding; details: 100 ng DNA, 5 or 10 µM peptide in water, 30 min at room temperature, 1% agarose gel
Description: Interactions of peptides with DNA was visualized with gel retardation assay ([Hsu et al., 2005]). 100 ng Lambda DNA/HindIII marker (ThermoFisher Scientific) was incubated with 0, 5 or 10 µM synthetic NCRs or NCR derivatives in water for 30 min at room temperature and then loaded into 1% agarose gel. Electrophoresis of DNA fragments separated the mobile HindIII-digested DNA fragments while the aggregated DNA remained in the loading wells.
FIGURE 6 Aggregation of DNA by NCR peptides. Lambda HindIII digested DNA was incubated without (0) or with NCR peptides at 5 or 10 μM concentration.

[3] = system: Acinetobacter baumannii (ATCC 17978); assay: microbe, parasite or virus in culture; assay type: cell-based; details: for MBC: ~10^7 log phase bacteria, Potassium-Phosphate Buffer pH 7.4, 3 h treatment, two-fold dilution series, lowest concentration completely eliminating viable bacteria, read-out: MBC, minimal bactericidal concentration against A. baumannii
Procedure, shortened: (§2)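 Peptides were serially diluted two-fold from 25 µM to 0.8 µM and incubated 3 h with roughly 10^7 log-phase cells in potassium-phosphate buffer at pH 7.4; complete killing of viable bacteria defined the minimal bactericidal concentration.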

[4] = system: Pseudomonas aeruginosa (ATCC 27853); assay type: cell-based; details: ATCC 27853, 3 h
Procedure, shortened: as §2

[5] = system: Salmonella enterica (ATCC 13076); assay type: cell-based; details: ATCC 13076, 3 h
Procedure, shortened: as §2

[6] = system: Enterococcus faecalis (ATCC 29212); assay type: cell-based
Procedure, shortened: as §2

[7] = system: Escherichia coli (ATCC 8739); assay type: cell-based; details: ATCC 8739, 3 h
Procedure, shortened: as §2

[8] = system: Staphylococcus aureus (HNCMO112011); assay type: cell-based; details: HNCMO112011, 3 h
Procedure, shortened: as §2

[9] = system: Klebsiella pneumoniae (NCTC 13440); assay type: cell-based; details: NCTC 13440, 3 h
Procedure, shortened: as §2

[10] = system: Listeria monocytogenes (ATCC 19111); assay type: cell-based; details: ATCC 19111, 3 h
Procedure, shortened: as §2

| Compound | Antibacterial spectrum over the eight tested bacterial strains [1] | Morphology of C. albicans cells by SEM (C. albicans) | Morphology of A. baumannii cells by SEM (A. baumannii) | Aggregation of HindIII-digested λ DNA (DNA retained in loading wells) [2] | MBC [3] [µM] | MBC Acinetobacter baumannii ([3]; ATCC 17978, 3 h) [µM] | MBC Pseudomonas aeruginosa [4] [µM] | MBC Salmonella enterica [5] [µM] | Ability to kill E. faecalis ([6]; 3 h, ~10^7 log phase bacteria, peptides ≤25 µM) | MBC Enterococcus faecalis ([6]; ATCC 29212, 3 h) [µM] | MBC Escherichia coli [7] [µM] | MBC Staphylococcus aureus [8] [µM] | MBC Klebsiella pneumoniae [9] [µM] | MBC Listeria monocytogenes [10] [µM] |
| --- | --- | --- | --- | --- | --- | --- | --- | --- | --- | --- | --- | --- | --- | --- |
| CC[C@H](C)[C@H](NC(=O)[C@H](CCCNC(=N)N)NC(=O)[C@@H](NC(=O)[C@H](CS)NC(=O)[C@H](CCCCN)NC(=O)[C@H](CS)NC(=O)[C@H](Cc1ccccc1)NC(=O)CNC(=O)[C@H](CC(N)=O)NC(=O)[C@@H](NC(=O)[C@H](CS)NC(=O)[C@H](CCCCN)NC(=O)[C@@H]1CCCN1C(=O)[C@@H](NC(=O)[C@H](CCCCN)NC(=O)[C@@H]1CCCN1C(=O)[C@H](CCCCN)NC(=O)[C@H](CCCNC(=N)N)NC(=O)[C@H](CS)NC(=O)[C@H](C)NC(=O)[C@H](Cc1ccccc1)NC(=O)[C@H](CCCCN)NC(=O)[C@H](CCCCN)NC(=O)[C@H](CS)NC(=O)[C@H](CC(=O)O)NC(=O)[C@H](CCCCN)NC(=O)[C@H](CC(=O)O)NC(=O)[C@H](CO)NC(=O)[C@H](CCC(N)=O)NC(=O)[C@H](CS)NC(=O)[C@@H]1CCCN1C(=O)[C@@H](N)CCCCN)C(C)C)[C@@H](C)CC)C(C)C)C(=O)N[C@@H](Cc1c[nH]c2ccccc12)C(=O)O [CaNCR13] (H-KPCQSDKDCKKFACRKPKVPKCINGFCKCVRIW-OH; N-terminus assumed) | broad-spectrum activity | aggregation of shrunken cells in a spider net like matrix | Only dead cells were visible | did not |  |  |  |  |  |  |  |  |  |  |
| CC[C@H](C)[C@H](NC(=O)[C@H](CCCCN)NC(=O)[C@H](CO)NC(=O)[C@H](CCCNC(=N)N)NC(=O)[C@@H]1CCCN1C(=O)[C@H](CS)NC(=O)[C@H](CCCNC(=N)N)NC(=O)[C@H](Cc1ccc(O)cc1)NC(=O)[C@H](CCCCN)NC(=O)[C@H](CCCCN)NC(=O)[C@H](CS)NC(=O)[C@H](CC(=O)O)NC(=O)[C@@H](NC(=O)[C@H](CCCNC(=N)N)NC(=O)[C@@H](NC(=O)[C@H](CCCCN)NC(=O)[C@H](CS)NC(=O)[C@@H](NC(=O)[C@H](CCSC)NC(=O)[C@@H](N)CCCCN)[C@@H](C)CC)[C@@H](C)O)C(C)C)C(=O)N[C@@H](CCCCN)C(=O)N[C@@H](CC(=O)O)C(=O)N[C@@H](CS)C(=O)N[C@H](C(=O)N[C@@H](CCCCN)C(=O)NCC(=O)N[C@@H](Cc1ccc(O)cc1)C(=O)N[C@@H](CS)C(=O)N[C@@H](CCCNC(=N)N)C(=O)N[C@@H](CS)C(=O)N[C@H](C(=O)N[C@@H](CCCNC(=N)N)C(=O)N[C@@H](CCCCN)C(=O)N[C@@H](CCCCN)C(=O)O)C(C)C)C(C)C [CaNCR63] (H-KMICKTRVDCKKYRCPRSKIKDCVKGYCRCVRKK-OH; N-terminus assumed) | broad-spectrum activity | Flattening of cells; also recorded: aggregation of shrunken cells in a spider net like matrix | rough cell surface, lysis and flattening of the cells | DNA remained in the wells | 6.25 (≈ 25.8 µg/mL) |  |  |  |  |  |  |  |  |  |
| CC[C@H](C)[C@H](N)C(=O)N[C@@H](Cc1ccc(O)cc1)C(=O)N[C@@H](Cc1ccccc1)C(=O)N[C@@H](CCCNC(=N)N)C(=O)N[C@@H](CCCCN)C(=O)N1CCC[C@H]1C(=O)N1CCC[C@H]1C(=O)N1CCC[C@H]1C(=O)N[C@@H](CS)C(=O)N[C@H](C(=O)N[C@H](C(=O)N[C@@H](CC(=O)O)C(=O)N[C@@H](CCCCN)C(=O)N[C@@H](CC(=O)O)C(=O)N[C@@H](CS)C(=O)N1CCC[C@H]1C(=O)N[C@@H](CCC(N)=O)C(=O)N[C@@H](CCSC)C(=O)N[C@@H](CCCCN)C(=O)N[C@H](C(=O)N[C@@H](CC(N)=O)C(=O)N[C@@H](CC(N)=O)C(=O)N[C@H](C(=O)N[C@@H](CCCNC(=N)N)C(=O)N[C@@H](CS)C(=O)N[C@@H](CCCNC(=N)N)C(=O)N[C@@H](CCCCN)C(=O)NCC(=O)N[C@@H](Cc1ccccc1)C(=O)N[C@@H](CS)C(=O)N[C@H](C(=O)N[C@@H](CCC(N)=O)C(=O)N[C@H](C(=O)N[C@@H](Cc1c[nH]cn1)C(=O)N[C@@H](CCCCN)C(=O)N[C@@H](Cc1ccccc1)C(=O)N[C@H](C(=O)N1CCC[C@H]1C(=O)O)[C@@H](C)O)[C@@H](C)CC)[C@@H](C)CC)C(C)C)[C@@H](C)CC)[C@@H](C)O)[C@@H](C)CC [NCR358] (H-IYFRKPPPCITDKDCPQMKINNVRCRKGFCIQIHKFTP-OH; N-terminus assumed) | capable of killing all tested bacteria; also recorded: active against all the eight tested pathogens |  |  |  |  | 3.125 (≈ 14.2 µg/mL) | 3.125 (≈ 14.2 µg/mL) | 3.125 (≈ 14.2 µg/mL) | able to kill | 6.25 (≈ 28.4 µg/mL) | 1.6 (≈ 7.26 µg/mL) | 3.125 (≈ 14.2 µg/mL) | 25 (≈ 113 µg/mL) | 3.125 (≈ 14.2 µg/mL) |
| CC[C@H](C)[C@H](NC(=O)[C@H](CCCNC(=N)N)NC(=O)[C@H](CCCNC(=N)N)NC(=O)[C@H](CS)NC(=O)[C@H](CCCNC(=N)N)NC(=O)[C@H](CCCNC(=N)N)NC(=O)[C@H](CCC(=O)O)NC(=O)[C@@H](NC(=O)[C@H](CS)NC(=O)[C@H](CC(C)C)NC(=O)[C@@H](NC(=O)[C@H](CCCCN)NC(=O)[C@H](Cc1ccc(O)cc1)NC(=O)[C@@H](NC(=O)[C@H](CCCCN)NC(=O)[C@H](CO)NC(=O)[C@H](CS)NC(=O)[C@H](CCCNC(=N)N)NC(=O)[C@H](Cc1ccccc1)NC(=O)[C@H](CCCNC(=N)N)NC(=O)[C@H](CC(C)C)NC(=O)[C@H](CS)NC(=O)[C@H](CC(=O)O)NC(=O)[C@H](CO)NC(=O)[C@H](CC(=O)O)NC(=O)[C@H](CC(N)=O)NC(=O)[C@H](CC(C)C)NC(=O)[C@H](CS)NC(=O)[C@H](CCCNC(=N)N)NC(=O)[C@H](CC(C)C)NC(=O)CNC(=O)[C@H](CO)NC(=O)[C@@H]1CCCN1)[C@@H](C)CC)C(C)C)[C@@H](C)CC)C(=O)N[C@@H](CCCCN)C(=O)N[C@@H](CCSC)C(=O)N[C@@H](Cc1c[nH]cn1)C(=O)O [PsNCR352] | broad-spectrum activity | Flattening of cells; also recorded: aggregation of shrunken cells in a spider net like matrix | cell form was preserved | did not | 6.25 (≈ 27.3 µg/mL) |  |  |  |  |  |  |  |  |  |
